In patent US20060251703A1, “Composition comprising an edible acid or its acidic salt and the use thereof” (priority 2003, published 2006):
Structures can show the parent of a compound that is named as a salt.

Assays:
[1] = pH of saliva after ingesting citric acid; assay type: in vivo, human; conditions: 700 mg citric acid ingested
Protocol: Saliva is a kind of humors and, normally, has the pH of around 6.8. For the purpose of reference, to test the pH of the saliva of a person was carried out who had brushed before testing and ingesting 700 mg of citric acid. […]

xanthine oxidase = assay: Inhibition of xanthine oxidase; assay type: biochemical; conditions: xanthine oxidase 0.01 u/ml, xanthine 5×10^−5M, pH=7.4, UV 295 nm; read-out: IC50 (concentration for depression of 50% activity of oxidase)
Chain of xanthine oxidase (P47989 whole entry, species assumed): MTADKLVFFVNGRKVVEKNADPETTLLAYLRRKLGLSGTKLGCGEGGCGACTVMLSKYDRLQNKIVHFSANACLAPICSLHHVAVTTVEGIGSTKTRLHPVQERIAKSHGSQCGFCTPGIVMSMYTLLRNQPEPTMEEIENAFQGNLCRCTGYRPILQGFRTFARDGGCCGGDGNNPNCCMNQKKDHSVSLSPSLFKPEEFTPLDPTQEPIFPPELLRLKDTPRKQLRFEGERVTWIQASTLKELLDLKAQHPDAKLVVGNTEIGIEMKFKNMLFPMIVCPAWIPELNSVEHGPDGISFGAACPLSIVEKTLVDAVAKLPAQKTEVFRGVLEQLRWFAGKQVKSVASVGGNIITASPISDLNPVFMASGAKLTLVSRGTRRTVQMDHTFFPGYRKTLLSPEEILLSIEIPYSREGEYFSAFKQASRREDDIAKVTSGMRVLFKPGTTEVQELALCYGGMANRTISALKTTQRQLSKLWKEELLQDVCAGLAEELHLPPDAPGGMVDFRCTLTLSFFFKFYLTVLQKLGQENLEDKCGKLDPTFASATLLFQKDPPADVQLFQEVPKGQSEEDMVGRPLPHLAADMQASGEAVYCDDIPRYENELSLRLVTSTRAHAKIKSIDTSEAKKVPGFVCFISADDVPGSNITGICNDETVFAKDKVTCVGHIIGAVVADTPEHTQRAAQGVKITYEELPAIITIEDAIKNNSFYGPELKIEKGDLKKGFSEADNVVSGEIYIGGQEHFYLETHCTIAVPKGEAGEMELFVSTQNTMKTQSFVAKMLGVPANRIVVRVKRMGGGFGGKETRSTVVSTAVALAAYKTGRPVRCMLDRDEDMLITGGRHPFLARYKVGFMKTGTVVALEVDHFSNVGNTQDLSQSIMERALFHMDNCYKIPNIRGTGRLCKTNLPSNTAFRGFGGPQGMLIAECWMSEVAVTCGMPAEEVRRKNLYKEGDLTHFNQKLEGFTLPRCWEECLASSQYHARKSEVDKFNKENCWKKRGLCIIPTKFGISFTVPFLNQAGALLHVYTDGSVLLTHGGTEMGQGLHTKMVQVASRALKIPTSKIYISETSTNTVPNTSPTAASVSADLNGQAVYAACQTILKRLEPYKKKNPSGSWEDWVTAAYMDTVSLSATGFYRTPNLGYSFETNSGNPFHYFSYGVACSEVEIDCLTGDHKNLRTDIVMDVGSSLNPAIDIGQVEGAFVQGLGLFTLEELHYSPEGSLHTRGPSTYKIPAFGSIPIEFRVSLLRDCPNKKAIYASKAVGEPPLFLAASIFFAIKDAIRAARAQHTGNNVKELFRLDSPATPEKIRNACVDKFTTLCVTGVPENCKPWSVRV
Protocol: The production process of peroxide free radical can be tested by Xanthine oxidase substrate in vito (Fridowich, I., J. Biol. Chem., 215, 4053˜4057, 1970). […] The test of inhibiting xanthine oxidase is carried out by the method of H. M. Kalckar (J. Biol. Chem., 167, 429˜443, 1947). The basic principle is xanthine being acted by xanthine oxidase to form uric acid that is quantitative analyzed by photometric method. By the amount of determined uric acid, is calculated the degree of inhibiting effect for the activity of xanthine oxidase.
The testing process is, adding a final concentration of 0.01 u/ml of xanthine oxidase in 1 cm cell of photometric apparatus, and adding 0.05M (pH=7.4) of phosphoric acid buffer or inhabitant The reaction time is counted from the point at adding xanthene's to a final concentration reaching 5×10^−5M. For reducing the error arose by absorption of liquid in photometric analysis, the compound of xanthine oxidase, xanthine and drug are boiled for the reference. UV selected at 295 nm, data are recorded at an interval of 30 seconds for 2 minutes. The unit of activity change of xanthine oxidase is 0.001M/min. Calculate the inhibiting rate for each addition amount of drug. To use drug concentration (M) as a function of inhibiting rate (%), and to trace the data on a log scale paper, the 50% depression rate of the oxidase (IC50) could be determined by regression line method.

[2] = system: oxazolone-coated mouse ear; assay: Anti-delayed type allergy reaction (oxazolone ear inflammation); assay type: in vivo; conditions: 1 mg/ear coated, ears weighed after 24 hr; for inhibition in vivo at 1 mg/ear: Mus musculus, topical, read-out: Depression rate (%)
Protocol: The weights of testing mice are ranging from 20 g to 30 g. They are coated with 0.1 ml of oxazolone alcohol solution (0.5 w/v %) on the hair cleaned part of abdomen. After five days, each of the listed drugs is dissolved in oxazolone acetone solution (0.5 w/v %), and 10 μl each of the solutions is token by micro pipette to coat on both sides of the right ear. After 24 hr, the mouse is killed by ether and punched a circle area of a diameter of 5.5 mm on both right and left ears in corresponding part by a puncher machine (portions of drug coated and the blank). The punched portions are weighed and the inflammation rates calculated. The control group are coated only with the oxazolone acetone solution (0.5 w/v %). The inflammation depressing rates of each drug are calculated by following equation: Inflammation depressing rate(%)=[(weight of drug coated right ear)−(weight of non-drug-coated left ear)]×100%/(weight of non-drug-coated left ear)

[3] = system: mouse's leaching cell solution (abdominal cavity cells); assay: Drug depressing effect on histamine leaching when treated with 48/80 compound; assay type: cell-based; conditions: testing drug 100(mg/ml); for inhibition at 100000 µg/mL: Mus musculus, read-out: Depression rate (%); for inhibition at 100000 µg/mL / Depression rate (%): 48/80 compound-induced histamine release; for Histamine Releasing rate (%): 48/80 compound, control 90.5, blank 9.0
Protocol: This is a comparative testing of drug depressing effect on the amount of leaching histamines when is treated with 48/80 (Sigma, St. MO, USA) compound.
(1). Preparation of leaching cell solution from mouse body.
A mouse is killed and bloodletting. Then 10 ml of Locke's solution containing 0.1% bovine serum protein is injected into its abdominal cavity. After abdominal cavity being light massaged, the cavity is cut and the Locke's solution is removed. Cavity is washed with another 5 ml of Locke's solution, and this washed solution is added to the late one. This combined solution is centrifuged at 600 rpm for 5 minutes. The sediments are washed with 5 ml of cool Locke's solution. Adding 3 ml of cold Locke's solution to the washed sediments, then a leached cell solution of abdominal cavity is obtained. The composition of Locke's solution is: NaCL […], KCL 0.2%, CaCL2 0.15%, glucose 1.0%, in w/v, and the rest distillated water.
(2). Drug depressing effect on the amount of leaching histamines when treated with 48/80 compound.
Each testing compound listed in the table 1 is dissolved in a Ringer's solution containing 1% NaHCO3, and then diluted with Locke's solution to the indicated concentration. 1.0 ml of each of those solutions in last term is mixed with 0.3 ml of mouse's leaching cell solution and 0.5 ml of Locke's solution. This mixture is cultivated at 37° C. for 5 minutes. Then adding 0.2 ml of Locke's solution of 48/80 compound (1 mg/100 ml) and cultivated at 37° C. for 10 minutes. Then the reaction is stopped by cooling, and centrifuged at 2,500 rpm for 10 minutes. 1.7 ml of decanted solution and 0.3 ml of sediments are obtained. 0.1 ml of water and 0.2 ml of 100% trichloroacetic acid are added to the decanted solution. 1.5 ml of Locke's solution and 0.2 ml of 100% trichloroacetic acid are added to the sediments washed solution. They are cultivated at room temperature for 30 minutes. After cultivation, the mixtures are centrifuged at 3,000 rpm for 15 minutes, respectively. 0.35 ml of each of the former two solutions is sampled. In each sample, 1.65 ml of water, 0.4 ml of 1N NaOH and 0.1 ml of 0.5% OPT (o-phthalic aldehyde) in methanol are added and cultivated at room temperature for 4 minutes. The reaction is stopped by adding 0.2 ml of 2M citric acid. And finally, determine the amount of released histamines in the tested solution by fluorescence method. By the analysis, results of the depression rate of histamines could be calculated.
Locke's solution is instead of each drug in control group, and instead of both drug and 48/80 compound solution in blank group. The histamine releasing rate (A) can be calculated by following equation. […] Where (Hs) is the total amount of histamine in the decanted solution, and (Hr) is the total amount of histamine in the sediment. (A)=[(Hs)/{(Hs)+(Hr)}]×100%. Then the depression rate is: =100−[(A−A in blank group)/(A−A in control group)]×100%.

IC50 (xanthine oxidase) | Compound | inhibition in vivo at 1 mg/ear [2] | inhibition at 100000 µg/mL [3] | Histamine Releasing rate (%) [3] | other results
0.1 µM | O=C(O)CC(O)(CC(=O)O)C(=O)O [Citric acid] | 100% | 100% | 8.7% | pH value of saliva ([1]; testing time 0 minute): 6.8; pH value of saliva ([1]; testing time 20 minute): 6.45; pH value of saliva ([1]; testing time 60 minute): 6.26; pH value of saliva ([1]; testing time 90 minute): 6.6; pH value of saliva ([1]; testing time 120 minute): 6.8
0.112 µM | O=C(O)CC(O)C(=O)O (stereo not drawn) [Malic acid] | 96% | 100% | 9.0% | 
 | CC1(C)[C@@H](O[C@H]2O[C@H](C(=O)[O-])[C@@H](O)[C@H](O)[C@H]2O[C@@H]2O[C@H](C(=O)[O-])[C@@H](O)[C@H](O)[C@H]2O)CC[C@]2(C)[C@H]3C(=O)C=C4[C@@H]5C[C@@](C)(C(=O)[O-])CC[C@]5(C)CC[C@@]4(C)[C@]3(C)CC[C@@H]12.[Na+].[Na+].[Na+] [Trisodium glycyrrhizinate, reference compound] |  |  | 65.5% | Depression rate (%) [3]: 30.9%
 | CC(O)C(=O)O (stereo not drawn) [Lactic acid] | 97% | 100% | 8.9% | 
 | CCCCCCC(O)C(=O)O (stereo not drawn) [α-hydroxy octanoic acid] | 94% | 100% | 9.0% | 
0.662 µM | Nc1nc2ncc(CNc3ccc(C(=O)N[C@@H](CCC(=O)O)C(=O)O)cc3)nc2c(=O)[nH]1 [Folic acid, reference compound] |  |  |  | 
 | CN(C)CCOC(c1ccccc1)c1ccccc1 [Diphenhydramine hydrochloride, reference compound] | 20% | 32.1% | 64.7% | 
 | O=C1O[C@H](CO)[C@@H](O)[C@H](O)[C@H]1O [gluconolactone] | 97% | 100% | 8.9% | 
 | O=C(O)CO [α-hydroxy ethanoic acid] |  |  | 9.0% | Depression rate (%) [2]: 98%; Depression rate (%) [3]: 100%
0.102 µM | O=C(O)C(O)C(O)C(=O)O (stereo not drawn) [Tartaric acid] | 97% | 100% | 8.9% | 
0.101 µM | O=C(O)/C=C/C(=O)O [Fumaric acid] | 98% | 100% | 8.9% | 
